These results are taken from ChEMBL document CHEMBL1126999, “Anticonvulsant sugar sulfamates. Potent cyclic sulfate and cyclic sulfite analogues of topiramate” (Bioorg Med Chem Lett, 1993).

Series [1] relates to Mus musculus. In words: Tested for anticonvulsant activity against mice at 4 hr at a peroral dose of 1 mg/Kg by maximal electroshock seizure (MES) test. The format is functional. Background: In the maximal electroshock model the usual endpoint is tonic extension of the hind limbs.
The subject of series [2] is Mus musculus. In words: Tested for anticonvulsant activity against mice at 4 hr at a peroral dose of 10 mg/Kg by maximal electroshock seizure (MES) test. The format is functional.
Series [3] relates to Mus musculus. In words: Tested for anticonvulsant activity against mice at 4 hr at a peroral dose of 75 mg/Kg by maximal electroshock seizure (MES) test. The series is classed as functional.
For series [4], the system named is Mus musculus. Nature of the series: Tested for effective dose required to produce anticonvulsant activity against mice at 4 hr (po). The series is classed as functional.
In series [5] the test system is Mus musculus. In words: Tested for anticonvulsant activity against mice at 4 hr at a peroral dose of 3 mg/Kg by maximal electroshock seizure (MES) test. The format is functional.
The subject of series [6] is Mus musculus. Nature of the series: Tested for anticonvulsant activity against mice at 4 hr at a peroral dose of 35 mg/Kg by maximal electroshock seizure (MES) test. The format is functional.
In series [7] the test system is Mus musculus. Nature of the series: Tested for anticonvulsant activity against mice at 4 hr at a peroral dose of 300 mg/Kg by maximal electroshock seizure (MES) test. The format is functional.
The test system of series [8] is Mus musculus. Nature of the series: Tested for anticonvulsant activity against mice at 4 hr at a peroral dose of 200 mg/Kg by maximal electroshock seizure (MES) test. The series is classed as functional.
A short description of series [9]: Therapeutic index relative to neurotoxicity ([…]) was determined in the rotarod test.
The test system of series [10] is Mus musculus. Nature of the series: Tested for effective dose required to produce anticonvulsant activity against mice at 16 hr (po). The format is functional.
The test system of series [11] is Mus musculus. In words: Tested for anticonvulsant activity against mice at 4 hr at a peroral dose of 60 mg/Kg by maximal electroshock seizure (MES) test. The format is functional.
The mark [12] stands for this setting: Mus musculus, po, 4 h, read-out: ED50.

For the compound `CC1(C)O[C@H]2[C@@H]3OS(=O)(=O)O[C@@H]3CO[C@@]2(COS(=O)(=O)NC2CCC2)O1`, the Block in the series on Mus musculus [1] stood at 0%; with Mus musculus [2] it was 90%.
`CC1(C)O[C@H]2[C@@H]3OS(=O)(=O)O[C@@H]3CO[C@@]2(COS(=O)(=O)NC2CCCCCCC2)O1`: the Block in the series on Mus musculus [2] came to 0%; in the series on Mus musculus [3] it was 30%.
With `CCN(CC)S(=O)(=O)OC[C@@]12OC[C@H]3OS(=O)(=O)O[C@H]3[C@@H]1OC(C)(C)O2`, the Block is on record as 10% in the series with Mus musculus [2] and 100% in the series with Mus musculus [3].
For orientation: ED50 means the midpoint of the dose-response relation. Regarding `CCNS(=O)(=O)OC[C@@]12OC[C@H]3OS(=O)(=O)O[C@H]3[C@@H]1OC(C)(C)O2`, the ED50 in the series with Mus musculus [4] (setting [12]) turned out to be 14.4 mg/kg. Besides, the Block worked out at 0% in the series with Mus musculus [5] and 100% in the series on Mus musculus [6].
Consider `CC1(C)O[C@H]2[C@@H]3OS(=O)(=O)O[C@@H]3CO[C@@]2(COS(=O)(=O)NCc2ccccc2)O1`, for which the Block in the series with Mus musculus [2] turned out to be 0%; with Mus musculus [3] it was 100%.
With `C=CCNS(=O)(=O)OC[C@@]12OC[C@H]3OS(=O)(=O)O[C@H]3[C@@H]1OC(C)(C)O2`, the Block with Mus musculus [1] is 0%; in the series on Mus musculus [2], 70%.
As to `CCCCNS(=O)(=O)OC[C@@]12OC[C@H]3OS(=O)(=O)O[C@H]3[C@@H]1OC(C)(C)O2`, the Block in the series on Mus musculus [6] came out at 100%; in the series with Mus musculus [2] it was 30%.
In the case of `CNS(=O)(=O)OC[C@@]12OC[C@H]3OS(=O)(=O)O[C@H]3[C@@H]1OC(C)(C)O2`, in the series with Mus musculus [4] (setting [12]), the ED50 was 7.4 mg/kg. In addition, the Block with Mus musculus [2] is given as 100%.
Consider `CC1(C)O[C@H]2[C@@H]3OS(=O)(=O)O[C@@H]3CO[C@@]2(COS(=O)(=O)Nc2ccccc2)O1`, for which the Block in the series with Mus musculus [7] and in the series with Mus musculus [3] was 0% throughout.
With `CCCCCCCCNS(=O)(=O)OC[C@@]12OC[C@H]3OS(=O)(=O)O[C@H]3[C@@H]1OC(C)(C)O2`, the Block in the series on Mus musculus [2] is reported as 0%; in the series on Mus musculus [3], 100%.
Regarding `CC1(C)O[C@H]2[C@@H]3OS(=O)(=O)O[C@@H]3CO[C@@]2(COS(=O)(=O)NCC(F)(F)F)O1`, the figures for the Block with Mus musculus [2] and in the series with Mus musculus [3] were 40% and 90%, respectively.
On to `CN(C)S(=O)(=O)OC[C@@]12OC[C@H]3OS(=O)(=O)O[C@H]3[C@@H]1OC(C)(C)O2`, for which, in the series on Mus musculus [4] (setting [12]), the ED50 is 6.9 mg/kg. Besides, the Block amounted to 100% in the series on Mus musculus [6] and 70% in the series on Mus musculus [2].
Consider `CC1(C)O[C@H]2[C@@H]3OS(=O)(=O)O[C@@H]3CO[C@@]2(COS(=O)(=O)NC2CC2)O1`, for which the Block in the series with Mus musculus [1] is given as 0%; with Mus musculus [2] it was 90%. Moreover, in the series with Mus musculus [4] (setting [12]), the ED50 was determined as 7.3 mg/kg.
Consider `CNS(=O)(=O)OC[C@@]12OC[C@H]3OC(C)(C)O[C@H]3[C@@H]1OC(C)(C)O2`, for which the Block in the series with Mus musculus [8] was 100%; with Mus musculus [3], 60%.
As to `CC1(C)O[C@H]2[C@@H]3OS(=O)(=O)O[C@@H]3CO[C@@]2(COS(N)(=O)=O)O1`, the ED50 was 6.3 mg/kg in the series with Mus musculus [4] (setting [12]) and 41.5 mg/kg in the series with Mus musculus [10]. The same compound had a Block in the series on Mus musculus [2] of 80%. Further, the selectivity ratio in series [9] is greater than 150.
For the compound `CN(C)S(=O)(=O)OC[C@@]12OC[C@H]3OC(C)(C)O[C@H]3[C@@H]1OC(C)(C)O2`, the Block with Mus musculus [8] was 80%; in the series on Mus musculus [3], 0%.
For `CC1(C)O[C@H]2[C@@H]3OS(=O)O[C@@H]3CO[C@@]2(COS(N)(=O)=O)O1` (stereo in doubt; 3a), the ED50 in the series with Mus musculus [4] (setting [12]) stood at 6.3 mg/kg. The compound also displayed a Block with Mus musculus [2] of 70%.
For the compound `CC1(C)O[C@H]2[C@@H]3OS(=O)O[C@@H]3CO[C@@]2(COS(N)(=O)=O)O1` (stereo in doubt; 3b), the ED50 in the series with Mus musculus [4] turned out to be 6.5 mg/kg.
For `O=C1NC(=O)C(c2ccccc2)(c2ccccc2)N1` [PHENYTOIN], the 50% effective dose (ED50) with Mus musculus [4] (setting [12]) is 6.4 mg/kg.
Consider `CC1(C)O[C@@H]2[C@@H](CO[C@@]3(COS(N)(=O)=O)OC(C)(C)O[C@@H]23)O1` [TOPIRAMATE], for which the ED50 turned out to be 53.5 mg/kg in the series with Mus musculus [4] and 720 mg/kg with Mus musculus [10]. This compound had a Block in the series with Mus musculus [11] of 60%.
